What was measured:
Assay in all cases: SelectScreen ZLYTE
Type in all cases: biochemical
Conditions in all cases: INX-0315 at 100nM
[1] = molecular target: T1, CSNK1E (CK1 epsilon) R178C (Homo sapiens, UniProt P49674, R178C)
T1 construct: purchased Thermo Fisher Scientific SelectScreen (plus Nanosyn / Reaction Biology for CDK/cyclin lines)
How it was run: (§1)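 Preset conditions throughout. Primary: 100 nmol/L INX-315, 1% DMSO. Secondary: ten doses, top 1 µmol/L, bottom 0.0495 nmol/L.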

[2] = molecular target: T2, CAMK1G (CAMKI gamma) (Homo sapiens, UniProt Q96NX5)
T2 construct: purchased Thermo Fisher Scientific SelectScreen (plus Nanosyn / Reaction Biology for CDK/cyclin lines)
How it was run: as §1

[3] = molecular target: T3, CSNK1E (CK1 epsilon) (Homo sapiens, UniProt P49674)
T3 construct: purchased Thermo Fisher Scientific SelectScreen (plus Nanosyn / Reaction Biology for CDK/cyclin lines)
How it was run: as §1

[4] = molecular target: T4, PRKCB1 (PKC beta I) (Homo sapiens, UniProt P05771)
T4 construct: purchased Thermo Fisher Scientific SelectScreen (plus Nanosyn / Reaction Biology for CDK/cyclin lines)
How it was run: as §1

[5] = molecular target: T5, MAP4K2 (GCK) (Homo sapiens, UniProt Q12851)
T5 construct: purchased Thermo Fisher Scientific SelectScreen (plus Nanosyn / Reaction Biology for CDK/cyclin lines)
How it was run: as §1

[6] = molecular target: T6, CDK18/cyclin Y (Homo sapiens, UniProt Q07002)
T6 construct: purchased Thermo Fisher Scientific SelectScreen (plus Nanosyn / Reaction Biology for CDK/cyclin lines)
How it was run: as §1

[7] = molecular target: T7, RPS6KB1 (p70S6K) (Homo sapiens, UniProt P23443)
T7 construct: purchased Thermo Fisher Scientific SelectScreen (plus Nanosyn / Reaction Biology for CDK/cyclin lines)
How it was run: as §1

[8] = molecular target: T8, EGFR (ErbB1) C797S (Homo sapiens, UniProt P00533, C797S)
T8 construct: purchased Thermo Fisher Scientific SelectScreen (plus Nanosyn / Reaction Biology for CDK/cyclin lines)
How it was run: as §1

[9] = molecular target: T9, RPS6KA6 (RSK4) (Homo sapiens, UniProt Q9UK32)
T9 construct: purchased Thermo Fisher Scientific SelectScreen (plus Nanosyn / Reaction Biology for CDK/cyclin lines)
How it was run: as §1

[10] = molecular target: T10, PAK3 (Homo sapiens, UniProt O75914)
T10 construct: purchased Thermo Fisher Scientific SelectScreen (plus Nanosyn / Reaction Biology for CDK/cyclin lines)
How it was run: as §1

[11] = molecular target: T11, AMPK (A2/B1/G2) (Homo sapiens, UniProt P54646)
T11 construct: purchased Thermo Fisher Scientific SelectScreen (plus Nanosyn / Reaction Biology for CDK/cyclin lines)
How it was run: as §1

[12] = molecular target: T12, TNK1 (Homo sapiens, UniProt Q13470)
T12 construct: purchased Thermo Fisher Scientific SelectScreen (plus Nanosyn / Reaction Biology for CDK/cyclin lines)
How it was run: as §1

[13] = molecular target: T13, CDKL5 (Homo sapiens, UniProt O76039)
T13 construct: purchased Thermo Fisher Scientific SelectScreen (plus Nanosyn / Reaction Biology for CDK/cyclin lines)
How it was run: as §1

[14] = molecular target: T14, ALK (Homo sapiens, UniProt Q9UM73)
T14 construct: purchased Thermo Fisher Scientific SelectScreen (plus Nanosyn / Reaction Biology for CDK/cyclin lines)
How it was run: as §1

[15] = molecular target: T15, MERTK (cMER) (Homo sapiens, UniProt Q12866)
T15 construct: purchased Thermo Fisher Scientific SelectScreen (plus Nanosyn / Reaction Biology for CDK/cyclin lines)
How it was run: as §1

[16] = molecular target: T16, GRK4 (Homo sapiens, UniProt P32298)
T16 construct: purchased Thermo Fisher Scientific SelectScreen (plus Nanosyn / Reaction Biology for CDK/cyclin lines)
How it was run: as §1

[17] = molecular target: T17, FYN (Homo sapiens, UniProt P06241)
T17 construct: purchased Thermo Fisher Scientific SelectScreen (plus Nanosyn / Reaction Biology for CDK/cyclin lines)
How it was run: as §1

[18] = molecular target: T18, ABL1 E255K (Homo sapiens, UniProt P00519, E255K)
T18 construct: purchased Thermo Fisher Scientific SelectScreen (plus Nanosyn / Reaction Biology for CDK/cyclin lines)
How it was run: as §1

[19] = molecular target: T19, IKBKE (IKK epsilon) (Homo sapiens, UniProt Q14164)
T19 construct: purchased Thermo Fisher Scientific SelectScreen (plus Nanosyn / Reaction Biology for CDK/cyclin lines)
How it was run: as §1

[20] = molecular target: T20, AURKC (Aurora C) (Homo sapiens, UniProt Q9UQB9)
T20 construct: purchased Thermo Fisher Scientific SelectScreen (plus Nanosyn / Reaction Biology for CDK/cyclin lines)
How it was run: as §1

[21] = molecular target: T21, KIT V560G (Homo sapiens, UniProt P10721, V560G)
T21 construct: purchased Thermo Fisher Scientific SelectScreen (plus Nanosyn / Reaction Biology for CDK/cyclin lines)
How it was run: as §1

[22] = molecular target: T22, KDR (VEGFR2) (Homo sapiens, UniProt P35968)
T22 construct: purchased Thermo Fisher Scientific SelectScreen (plus Nanosyn / Reaction Biology for CDK/cyclin lines)
How it was run: as §1

[23] = molecular target: T23, AMPK A2/B1/G1 (Homo sapiens, UniProt P54646)
T23 construct: purchased Thermo Fisher Scientific SelectScreen (plus Nanosyn / Reaction Biology for CDK/cyclin lines)
How it was run: as §1

[24] = molecular target: T24, MAP2K2 (MEK2) (Homo sapiens, UniProt P36507)
T24 construct: purchased Thermo Fisher Scientific SelectScreen (plus Nanosyn / Reaction Biology for CDK/cyclin lines)
How it was run: as §1

[25] = molecular target: T25, PDGFRA (PDGFR alpha) (Homo sapiens, UniProt P16234)
T25 construct: purchased Thermo Fisher Scientific SelectScreen (plus Nanosyn / Reaction Biology for CDK/cyclin lines)
How it was run: as §1

[26] = molecular target: T26, SYK (Homo sapiens, UniProt P43405)
T26 construct: purchased Thermo Fisher Scientific SelectScreen (plus Nanosyn / Reaction Biology for CDK/cyclin lines)
How it was run: as §1

[27] = molecular target: T27, PDK1 (Homo sapiens, UniProt O15530)
T27 construct: purchased Thermo Fisher Scientific SelectScreen (plus Nanosyn / Reaction Biology for CDK/cyclin lines)
How it was run: as §1

[28] = molecular target: T28, KIT V559D (Homo sapiens, UniProt P10721, V559D)
T28 construct: purchased Thermo Fisher Scientific SelectScreen (plus Nanosyn / Reaction Biology for CDK/cyclin lines)
How it was run: as §1

[29] = molecular target: T29, MAPK10 (JNK3) (Homo sapiens, UniProt P53779)
T29 construct: purchased Thermo Fisher Scientific SelectScreen (plus Nanosyn / Reaction Biology for CDK/cyclin lines)
How it was run: as §1

[30] = molecular target: T30, ABL2 (Arg) (Homo sapiens, UniProt P42684)
T30 construct: purchased Thermo Fisher Scientific SelectScreen (plus Nanosyn / Reaction Biology for CDK/cyclin lines)
How it was run: as §1

[31] = molecular target: T31, CDC42 BPA (MRCKA) (Homo sapiens, UniProt Q5VT25)
T31 construct: purchased Thermo Fisher Scientific SelectScreen (plus Nanosyn / Reaction Biology for CDK/cyclin lines)
How it was run: as §1

[32] = molecular target: T32, AKT2 (PKB beta) (Homo sapiens, UniProt P31751)
T32 construct: purchased Thermo Fisher Scientific SelectScreen (plus Nanosyn / Reaction Biology for CDK/cyclin lines)
How it was run: as §1

[33] = molecular target: T33, RPS6KB2 (p70S6Kb) (Homo sapiens, UniProt Q9UBS0)
T33 construct: purchased Thermo Fisher Scientific SelectScreen (plus Nanosyn / Reaction Biology for CDK/cyclin lines)
How it was run: as §1

[34] = molecular target: T34, CDK5/p25 (Homo sapiens, UniProt Q00535)
T34 construct: purchased BPS 40105
How it was run: as §1

[35] = molecular target: T35, CAMK2B (CaMKII beta) (Homo sapiens, UniProt Q13554)
T35 construct: purchased Thermo Fisher Scientific SelectScreen (plus Nanosyn / Reaction Biology for CDK/cyclin lines)
How it was run: as §1

[36] = molecular target: T36, MAPK13 (p38 delta) (Homo sapiens, UniProt O15264)
T36 construct: purchased Thermo Fisher Scientific SelectScreen (plus Nanosyn / Reaction Biology for CDK/cyclin lines)
How it was run: as §1

T33 sequence (Q9UBS0 whole entry): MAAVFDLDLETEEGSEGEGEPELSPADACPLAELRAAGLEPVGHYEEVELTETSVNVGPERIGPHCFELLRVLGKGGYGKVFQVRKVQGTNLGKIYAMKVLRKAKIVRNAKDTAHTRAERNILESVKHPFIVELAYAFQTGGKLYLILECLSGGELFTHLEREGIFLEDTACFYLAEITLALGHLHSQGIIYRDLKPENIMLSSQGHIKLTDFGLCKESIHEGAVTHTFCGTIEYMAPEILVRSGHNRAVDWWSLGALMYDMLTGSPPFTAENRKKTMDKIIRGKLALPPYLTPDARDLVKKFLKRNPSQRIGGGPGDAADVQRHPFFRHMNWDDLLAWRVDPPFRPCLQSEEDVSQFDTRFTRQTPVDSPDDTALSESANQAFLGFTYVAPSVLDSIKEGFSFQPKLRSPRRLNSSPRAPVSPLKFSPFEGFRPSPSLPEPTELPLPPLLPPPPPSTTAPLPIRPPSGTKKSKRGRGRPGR
T18 sequence (P00519 whole entry E255K): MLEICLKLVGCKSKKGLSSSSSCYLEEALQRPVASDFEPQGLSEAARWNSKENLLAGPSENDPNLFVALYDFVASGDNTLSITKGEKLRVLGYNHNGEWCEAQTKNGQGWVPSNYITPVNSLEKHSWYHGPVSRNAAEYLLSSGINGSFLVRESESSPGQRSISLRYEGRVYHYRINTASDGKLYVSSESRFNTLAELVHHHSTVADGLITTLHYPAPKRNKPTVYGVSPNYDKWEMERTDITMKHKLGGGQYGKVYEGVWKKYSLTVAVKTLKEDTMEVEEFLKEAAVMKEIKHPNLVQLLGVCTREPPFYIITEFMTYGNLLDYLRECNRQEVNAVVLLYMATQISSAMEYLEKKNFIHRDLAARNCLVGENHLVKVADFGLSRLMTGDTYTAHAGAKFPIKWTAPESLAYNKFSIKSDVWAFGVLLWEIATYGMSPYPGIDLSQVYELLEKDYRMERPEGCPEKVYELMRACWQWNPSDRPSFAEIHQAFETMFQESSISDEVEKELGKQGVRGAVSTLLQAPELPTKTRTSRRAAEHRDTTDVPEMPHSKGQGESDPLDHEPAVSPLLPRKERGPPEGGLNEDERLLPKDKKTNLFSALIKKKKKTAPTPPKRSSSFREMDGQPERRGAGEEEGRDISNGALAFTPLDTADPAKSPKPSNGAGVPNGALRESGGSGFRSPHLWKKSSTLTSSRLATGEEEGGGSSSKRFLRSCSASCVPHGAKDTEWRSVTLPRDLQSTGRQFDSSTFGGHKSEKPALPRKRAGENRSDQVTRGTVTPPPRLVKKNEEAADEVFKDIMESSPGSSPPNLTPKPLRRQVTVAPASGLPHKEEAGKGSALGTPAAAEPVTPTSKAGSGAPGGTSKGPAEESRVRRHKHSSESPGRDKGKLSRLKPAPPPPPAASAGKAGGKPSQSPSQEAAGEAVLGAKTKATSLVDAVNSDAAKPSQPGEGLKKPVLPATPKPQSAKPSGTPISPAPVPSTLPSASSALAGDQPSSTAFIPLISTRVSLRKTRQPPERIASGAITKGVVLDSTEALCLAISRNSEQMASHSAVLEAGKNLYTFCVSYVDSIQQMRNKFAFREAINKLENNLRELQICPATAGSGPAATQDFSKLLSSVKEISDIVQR
T24 sequence (P36507 whole entry): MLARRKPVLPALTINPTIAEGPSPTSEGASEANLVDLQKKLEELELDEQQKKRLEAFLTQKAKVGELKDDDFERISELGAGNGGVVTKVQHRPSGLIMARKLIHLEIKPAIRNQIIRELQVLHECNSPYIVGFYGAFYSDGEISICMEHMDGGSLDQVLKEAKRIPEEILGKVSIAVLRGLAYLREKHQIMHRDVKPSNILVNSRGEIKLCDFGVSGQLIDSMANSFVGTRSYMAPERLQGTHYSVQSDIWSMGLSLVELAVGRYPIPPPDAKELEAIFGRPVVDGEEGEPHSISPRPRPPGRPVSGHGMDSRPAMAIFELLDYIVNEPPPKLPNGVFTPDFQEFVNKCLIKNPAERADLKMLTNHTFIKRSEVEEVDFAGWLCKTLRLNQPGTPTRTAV
T17 sequence (P06241 whole entry): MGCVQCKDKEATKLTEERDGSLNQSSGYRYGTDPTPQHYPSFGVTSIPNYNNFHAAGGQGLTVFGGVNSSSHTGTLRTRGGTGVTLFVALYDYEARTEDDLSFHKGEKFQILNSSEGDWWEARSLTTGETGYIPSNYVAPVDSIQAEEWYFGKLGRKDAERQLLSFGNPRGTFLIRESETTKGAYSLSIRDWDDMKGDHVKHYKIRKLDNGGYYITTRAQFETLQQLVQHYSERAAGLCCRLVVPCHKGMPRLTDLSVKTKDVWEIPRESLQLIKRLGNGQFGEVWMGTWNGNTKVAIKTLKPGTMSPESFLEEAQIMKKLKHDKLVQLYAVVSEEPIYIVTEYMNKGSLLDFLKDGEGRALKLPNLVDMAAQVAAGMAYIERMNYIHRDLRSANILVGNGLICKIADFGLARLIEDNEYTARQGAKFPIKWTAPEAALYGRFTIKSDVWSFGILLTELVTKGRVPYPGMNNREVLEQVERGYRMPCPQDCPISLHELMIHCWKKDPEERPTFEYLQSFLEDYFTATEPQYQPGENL
T10 sequence (O75914 whole entry): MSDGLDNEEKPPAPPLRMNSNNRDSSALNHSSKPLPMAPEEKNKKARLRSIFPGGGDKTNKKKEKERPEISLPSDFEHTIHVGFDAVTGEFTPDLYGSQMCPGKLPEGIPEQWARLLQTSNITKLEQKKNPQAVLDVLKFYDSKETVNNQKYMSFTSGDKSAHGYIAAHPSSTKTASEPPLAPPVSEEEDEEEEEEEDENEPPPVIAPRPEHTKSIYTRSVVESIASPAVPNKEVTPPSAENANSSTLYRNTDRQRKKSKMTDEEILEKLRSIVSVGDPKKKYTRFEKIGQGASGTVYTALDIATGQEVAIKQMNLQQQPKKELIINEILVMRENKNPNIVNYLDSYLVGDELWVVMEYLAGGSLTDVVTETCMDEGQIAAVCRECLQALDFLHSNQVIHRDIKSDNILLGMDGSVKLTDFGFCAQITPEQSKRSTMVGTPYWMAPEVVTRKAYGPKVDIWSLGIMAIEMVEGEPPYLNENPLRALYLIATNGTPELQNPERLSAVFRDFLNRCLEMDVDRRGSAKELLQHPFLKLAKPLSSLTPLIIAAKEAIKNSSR
T13 sequence (O76039 whole entry): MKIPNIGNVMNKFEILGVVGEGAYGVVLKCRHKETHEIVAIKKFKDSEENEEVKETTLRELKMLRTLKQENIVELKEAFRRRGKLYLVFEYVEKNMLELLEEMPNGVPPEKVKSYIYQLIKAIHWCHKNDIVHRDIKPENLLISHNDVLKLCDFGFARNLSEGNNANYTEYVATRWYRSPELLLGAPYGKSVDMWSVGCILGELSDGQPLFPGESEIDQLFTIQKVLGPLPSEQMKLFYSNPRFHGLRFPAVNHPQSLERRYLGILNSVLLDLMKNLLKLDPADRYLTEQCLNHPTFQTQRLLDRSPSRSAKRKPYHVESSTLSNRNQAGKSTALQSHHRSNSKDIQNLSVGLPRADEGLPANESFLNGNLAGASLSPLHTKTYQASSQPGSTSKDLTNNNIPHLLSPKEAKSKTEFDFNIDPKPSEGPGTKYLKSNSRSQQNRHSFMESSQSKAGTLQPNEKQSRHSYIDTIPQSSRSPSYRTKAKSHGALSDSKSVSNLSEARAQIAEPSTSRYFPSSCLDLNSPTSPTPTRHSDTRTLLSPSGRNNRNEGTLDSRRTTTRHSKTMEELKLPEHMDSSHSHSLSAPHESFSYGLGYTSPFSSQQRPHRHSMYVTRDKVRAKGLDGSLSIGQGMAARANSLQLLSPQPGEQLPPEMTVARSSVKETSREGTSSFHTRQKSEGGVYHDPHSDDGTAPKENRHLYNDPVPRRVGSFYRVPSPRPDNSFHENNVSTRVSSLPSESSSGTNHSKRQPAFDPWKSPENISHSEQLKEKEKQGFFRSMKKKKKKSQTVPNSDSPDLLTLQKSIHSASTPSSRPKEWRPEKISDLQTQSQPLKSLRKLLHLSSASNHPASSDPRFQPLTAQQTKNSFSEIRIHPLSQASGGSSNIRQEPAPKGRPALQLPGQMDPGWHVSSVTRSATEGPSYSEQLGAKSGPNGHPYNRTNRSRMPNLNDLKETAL
T4 sequence (P05771 whole entry): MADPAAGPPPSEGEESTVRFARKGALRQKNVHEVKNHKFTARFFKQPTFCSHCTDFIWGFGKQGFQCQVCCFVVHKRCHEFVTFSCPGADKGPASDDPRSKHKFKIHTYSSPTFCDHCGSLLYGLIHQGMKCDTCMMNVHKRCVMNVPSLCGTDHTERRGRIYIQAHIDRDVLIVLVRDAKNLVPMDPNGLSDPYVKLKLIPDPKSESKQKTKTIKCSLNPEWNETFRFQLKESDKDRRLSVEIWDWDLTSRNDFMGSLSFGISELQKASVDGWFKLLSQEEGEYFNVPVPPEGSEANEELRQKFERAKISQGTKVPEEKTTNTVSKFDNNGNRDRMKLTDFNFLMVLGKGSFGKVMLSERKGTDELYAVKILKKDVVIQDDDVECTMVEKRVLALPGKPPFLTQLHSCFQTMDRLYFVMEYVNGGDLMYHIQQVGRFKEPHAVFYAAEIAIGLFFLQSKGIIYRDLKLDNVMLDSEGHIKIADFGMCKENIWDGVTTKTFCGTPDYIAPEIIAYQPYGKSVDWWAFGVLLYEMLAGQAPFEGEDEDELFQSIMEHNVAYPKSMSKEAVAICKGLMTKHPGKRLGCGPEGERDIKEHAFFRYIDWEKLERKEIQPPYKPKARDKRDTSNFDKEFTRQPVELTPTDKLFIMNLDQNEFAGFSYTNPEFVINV
T20 sequence (Q9UQB9 whole entry): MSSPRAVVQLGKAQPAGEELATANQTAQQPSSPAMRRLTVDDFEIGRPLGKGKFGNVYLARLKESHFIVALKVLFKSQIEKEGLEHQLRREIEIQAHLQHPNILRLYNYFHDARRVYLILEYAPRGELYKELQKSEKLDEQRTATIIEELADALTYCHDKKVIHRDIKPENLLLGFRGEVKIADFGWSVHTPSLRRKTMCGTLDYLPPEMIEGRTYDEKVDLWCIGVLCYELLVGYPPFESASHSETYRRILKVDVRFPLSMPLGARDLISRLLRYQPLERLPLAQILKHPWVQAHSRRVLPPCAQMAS

Question: Which results are given for `NS(=O)(=O)c1ccc(Nc2ncc3cc4n(c3n2)C2(CCCCC2)C(=O)NN4)cc1` [INX-315]?
Answer: inhibition at 0.1 µM [1]: 5%; inhibition at 0.1 µM [2]: 0%; inhibition at 0.1 µM [3]: -5%; inhibition at 0.1 µM [4]: 12%; inhibition at 0.1 µM [5]: 0%; inhibition at 0.1 µM [6]: 9%; inhibition at 0.1 µM [7]: 1%; inhibition at 0.1 µM [8]: -8%; inhibition at 0.1 µM [9]: 56%; inhibition at 0.1 µM [10]: 4%; inhibition at 0.1 µM [11]: 20%; inhibition at 0.1 µM [12]: 14%; inhibition at 0.1 µM [13]: -1%; inhibition at 0.1 µM [14]: 16%; inhibition at 0.1 µM [15]: 20%; inhibition at 0.1 µM [16]: 31%; inhibition at 0.1 µM [17]: 4%; inhibition at 0.1 µM [18]: 11%; inhibition at 0.1 µM [19]: 10%; inhibition at 0.1 µM [20]: 53%; inhibition at 0.1 µM [21]: 27%; inhibition at 0.1 µM [22]: 42%; inhibition at 0.1 µM [23]: 5%; inhibition at 0.1 µM [24]: 17%; inhibition at 0.1 µM [25]: 21%; inhibition at 0.1 µM [26]: 8%; inhibition at 0.1 µM [27]: 7%; inhibition at 0.1 µM [28]: 21%; inhibition at 0.1 µM [29]: 11%; inhibition at 0.1 µM [30]: 14%; inhibition at 0.1 µM [31]: -3%; inhibition at 0.1 µM [32]: 1%; inhibition at 0.1 µM [33]: 4%; inhibition at 0.1 µM [34]: 93%; inhibition at 0.1 µM [35]: 17%; inhibition at 0.1 µM [36]: 5%

Source: article PMC10905675, “INX-315, a Selective CDK2 Inhibitor, Induces Cell Cycle Arrest and Senescence in Solid Tumors” (Cancer Discovery, 2023)
